The numbers were not newly measured in patent US20070082912A1, “Pyrrole compounds for the treatment of prostaglandine mediated diseases” (priority 2002, published 2007), which cites them from elsewhere.

Data set [1] relates to rat model of chronic constriction injury. Particulars: Anesthesia and Analgesia 2001, 93, 1012-7.
The test system of data set [2] is rodent model of post-operative pain. The conditions noted are these: Anesthesia and Analgesia 2001, 92, 233-238.

`Cc1cc(Cl)ccc1S(=O)(=O)NC[C@H]1C2CCC(CC2)[C@@H]1/C=C\CCCC(=O)O` [ONO-871 1]: the hyperalgesia and allodynia entry in data set [1] is “reduces hyperalgesia and allodynia”. In addition, the mechanical hyperalgesia result in data set [2] is on record as “inhibits mechanical hyperalgesia”.
